Here are results for 15 compounds from US7951799B2, “Lactam compound, a method for producing the same, and a diabetic therapy by administering the same” (Ajinomoto Co., Inc., priority 2005, dated 2011).

Data set [1] concerns MDCK cells. Briefly: Evaluation of membrane permeability using MDCK cells. To be noted: MDCK monolayer; mucous membrane side (pH 6.5) to basal membrane side (pH 7.4); 37° C.
Experimental: (§3) The compound of the present invention was evaluated for membrane permeability using MDCK cells, according to the method below.
(§4) An epithelial cell line derived from dog renal tubule, MDCK (Madin Darby Canine Kidney cell line), is cultured for 3 to 4 days in a flask containing 10% FBS-added D-MEM/F12 culture medium (Manufactured by Gibco) at 37° C. in a carbon dioxide incubator. The cells are detached from the flask with a Trypsin/EDTA solution (Manufactured by Gibco), and unicellularized by pipetting. The cells are suspended in the same medium as described above and placed in a transwell (mucous membrane-side well) of a Transwell plate (manufactured by COSTAR) at 2×10^5 cell/well in a volume of 0.1 ml. The transwell is transferred to the basal membrane-side well where 0.6 ml of the same culture medium has been placed, and the cells are cultured at 37° C. in a carbon dioxide incubator for 3 days. After the culture, the culture media in the mucous membrane-side well and the basal membrane-side well are exchanged for the same culture medium, incubated under the same condition for one day. Thus, satisfactory MDCK monolayer culture cells are obtained.
(§5) During in vitro permeation-absorption experiments, the culture media are eliminated from both wells, the mucous membrane-side well is washed with PBS buffer solution (pH 6.5), and the basal membrane-side well is washed with PBS buffer solution (pH 7.4). Next, 0.1 ml of PBS buffer solution (pH6.5) is added to the mucous membrane-side well, 0.6 ml of PBS buffer solution (pH 7.4) is added to the basal membrane-side well, and equilibration is carried out by incubating for 15 minutes in a 37° C. incubator.
(§6) The mucous membrane-side well is exchanged for 0.1 ml of a solution containing the test substance prepared with PBS buffer solution (pH6.5), and time point when the well is transferred to the basal membrane-side well substituted with 0.6 ml of PBS buffer solution (pH7.4) is taken as the permeation-absorption start time, and thereafter, sampling is performed from the basal membrane-side well over time. The amounts of test substance in the samples sampled in this way are measured by HPLC analysis, and the amount of the substance permeated and absorbed from the mucous membrane side to the basal membrane side according to the reaction time is determined to determine the permeation coefficient (cm/sec).
The test system of data set [2] is rat adipocytes. Briefly: Evaluation of sugar transport activity (2-[14C(U)]-deoxy-D-glucose incorporation). To be noted: for EC50 (concentration of test compound corresponding to 50% enhancement action of sugar transport): enhancement action of insulin (100 nM) taken as 100%, 30 min preculture at 37° C. Type of data set: cell-based. The method, then: Three male Wistar rats (6 to 7 weeks old) were bled by decapitation, and then laparotomized to extract 3 g of paratesticular fat tissue. […] An amount of 8 mg of collagenase (Type I) was added to carry out digestion treatment for 35 minutes, and undigested fragments were eliminated with a nylon mesh to obtain approximately 3 ml of isolated adipocytes. Collagenase was eliminated by buffer exchange, then, 2% BSA/KRH solution was added for re-suspension to obtain 15 ml of adipocyte suspension. The evaluation of sugar transport activity of the compound of the present invention was carried out with the methods described in the literature (Annual Review of Biochemistry, Volume 55, Page 1059, 1986) as a reference. That is to say, the above adipocyte suspension was distributed into polystyrene test tube, 200 μl each, 100 μl of solution of test substance (10 mg/ml of dimethylsulfoxide solution diluted with KRH) was added, and cultured while shaking at 37° C. for 30 minutes.

For data set [3], the system named is C57BL/KsJ-db/dbJcl mice. Briefly: Evaluation of hypoglycemic action in pathologic mouse. Type of data set: in vivo. To be noted: 120 minutes after administration, fasted 20 hours. On the procedure: (§1) C57BL/KsJ-db/dbJcl mice (8 to 9 weeks old) or GK/Jcl rats fasted for 20 hours were administered with the test compound by a single oral administration, blood was collected from the tail vein immediately before administration and 30, 60, 120 and 180 minutes after administration, and the blood glucose level was measured with Fuji DryChem5500 (glucose oxidase method). For the test animals, a group comprised 4 to 5 subjects, and the blood glucose level was determined as mean values. The test compound was administered by dissolving in an aqueous solution of 50% polyethyleneglycol 400, or 100% polyethyleneglycol 400.
(§2) The degrees of hypoglycemia calculated based on the blood glucose levels measured according to the methods described above are shown in Table 5 (mouse) and Table 6 (rat). The degree of hypoglycemia was calculated as the percentage of the difference between the blood glucose level at one time point 120 minutes after administration and blood glucose level immediately before administration, with respect to the blood glucose level immediately before administration.

Data set [4] relates to GK/Jcl rats. Briefly: Evaluation of hypoglycemic action in pathologic rat. The data set is classed as in vivo. To be noted: 120 minutes after administration, fasted 20 hours. The method, then:
as §1, §2

The subject of data set [5] is MDCK cells. To be noted: dog.
Experimental: as §3, §4, §5, §6
Where [6] appears, read: 3 mg/kg single oral administration.
The mark [7] stands for this setting: 10 mg/kg single oral administration.

Read-outs that look alike come from different tables or passages of the source.

In the case of `O=C1NCC2=C1[C@@H](c1cccc3ccoc13)N(C(=O)CO)[C@@H]1CCCC[C@H]1N2` [Example 1], in data set [1], the Permeation coefficient is 8 10^−7 cm/sec. In addition, in data set [2], the “EC50 (concentration of test compound corresponding to 50% enhancement action of sugar transport)” value turned out to be 0.65 µg/mL. The figures for the Degree of hypoglycemia in data set [3] (setting [6]) and in data set [3] (setting [7]) were 4% and 51%, respectively.

Take `COCC(=O)N1[C@@H]2CCCC[C@H]2NC2=C(C(=O)NC2)[C@H]1c1cccc2cc[nH]c12` [Example 5]: in data set [1], the Permeation coefficient is listed as 20 10^−7 cm/sec. The “EC50 (concentration of test compound corresponding to 50% enhancement action of sugar transport)” value in data set [2] was 0.26 µg/mL. Moreover, the Degree of hypoglycemia in data set [3] (setting [6]) turned out to be 28%; in data set [3] (setting [7]), 41%.

Consider `O=C1NCC2=C1[C@@H](c1cccc3ccoc13)N(C(=O)C(F)F)[C@@H]1CCCC[C@H]1N2` [Example 6], for which the Permeation coefficient in data set [1] is reported as 8 10^−7 cm/sec. Besides, the “EC50 (concentration of test compound corresponding to 50% enhancement action of sugar transport)” value in data set [2] was 0.58 µg/mL.

In the case of `O=C1NCC2=C1[C@@H](c1cccc3ccoc13)N(C(=O)C(F)(F)F)[C@@H]1CCCC[C@H]1N2` [Example 7], the “EC50 (concentration of test compound corresponding to 50% enhancement action of sugar transport)” value in data set [2] came out at 1.94 µg/mL.

With `O=C1NCC2=C1[C@@H](c1cccc3ccsc13)N(C(=O)CO)[C@@H]1CCCC[C@H]1N2` [Example 8], the “EC50 (concentration of test compound corresponding to 50% enhancement action of sugar transport)” value in data set [2] came out at 0.61 µg/mL. In addition, the Degree of hypoglycemia in data set [3] (setting [6]) is on record as 26%; in data set [3] (setting [7]), 23%.

For the compound `Cc1cc2cccc([C@@H]3C4=C(CNC4=O)N[C@@H]4CCCC[C@H]4N3C(=O)CO)c2o1` [Example 9], the Permeation coefficient in data set [1] is 40 10^−7 cm/sec. The “EC50 (concentration of test compound corresponding to 50% enhancement action of sugar transport)” value in data set [2] is 0.92 µg/mL. Further, the Degree of hypoglycemia stood at 30% in data set [4] (setting [6]) and 37% in data set [4] (setting [7]).

`Cc1cc2cccc([C@@H]3C4=C(CNC4=O)N[C@@H]4CCCC[C@H]4N3C(=O)CO)c2[nH]1` [Example 11]: in data set [2], the “EC50 (concentration of test compound corresponding to 50% enhancement action of sugar transport)” value turned out to be 0.73 µg/mL.

Consider `COCC(=O)N1[C@@H]2CCCC[C@H]2NC2=C(C(=O)NC2)[C@H]1c1cccc2cc(C)[nH]c12` [Example 12], for which the Permeation coefficient in data set [1] is on record as 20 10^−7 cm/sec. Besides, in data set [2], the “EC50 (concentration of test compound corresponding to 50% enhancement action of sugar transport)” value amounted to 0.63 µg/mL. This compound had a Degree of hypoglycemia in data set [4] (setting [7]) of 34%.

In the case of `O=C1NCC2=C1[C@@H](c1cccc3c1OCC3)N(C(=O)CO)[C@@H]1CCCC[C@H]1N2` [Example 13], the “EC50 (concentration of test compound corresponding to 50% enhancement action of sugar transport)” value in data set [2] is 0.90 µg/mL.

For `O=C1NCC2=C1[C@@H](c1cccc3ccnn13)N(C(=O)CO)[C@@H]1CCCC[C@H]1N2` [Example 14], in data set [2], the “EC50 (concentration of test compound corresponding to 50% enhancement action of sugar transport)” value came out at 1.3 µg/mL. Also, the Degree of hypoglycemia in data set [4] (setting [7]) turned out to be 36%.

`O=C1NCC2=C1[C@@H](c1cccc3cccnc13)N(C(=O)CO)[C@@H]1CCCC[C@H]1N2` [Example 16]: the “EC50 (concentration of test compound corresponding to 50% enhancement action of sugar transport)” value in data set [2] came to 1.36 µg/mL. For the same compound, in data set [5], the Permeation coefficient is 9 10^−7 cm/sec. Also, the Degree of hypoglycemia in data set [3] (setting [6]) was 12%; in data set [3] (setting [7]) it was 36%.

`O=C1NCC2=C1[C@@H](c1cccc3cccnc13)N(C(=O)C(F)F)[C@@H]1CCCC[C@H]1N2` [Example 17]: the “EC50 (concentration of test compound corresponding to 50% enhancement action of sugar transport)” value in data set [2] amounted to 0.59 µg/mL. The Degree of hypoglycemia in data set [4] (setting [7]) was determined as 35%. Besides, the Permeation coefficient in data set [5] is listed as 10 10^−7 cm/sec.

For `CSc1ccsc1[C@@H]1C2=C(CNC2=O)N[C@@H]2CCCC[C@H]2N1C(=O)CO` [Example 18], the “EC50 (concentration of test compound corresponding to 50% enhancement action of sugar transport)” value in data set [2] worked out at 3.1 µg/mL. The Degree of hypoglycemia in data set [3] (setting [6]) is given as 21%; in data set [3] (setting [7]), 41%.

For `C=Cc1ccccc1[C@@H]1C2=C(CNC2=O)N[C@@H]2CCCC[C@H]2N1C(=O)CO` [Example 19], the Permeation coefficient in data set [1] is recorded as 10 10^−7 cm/sec. Moreover, in data set [2], the “EC50 (concentration of test compound corresponding to 50% enhancement action of sugar transport)” value came to 0.45 µg/mL. In addition, the Degree of hypoglycemia is on record as 31% in data set [3] (setting [6]) and 36% in data set [3] (setting [7]).

insulin: the “sugar transport enhancement action compared to non-insulin added control group” value in data set [2] (insulin 100 nM) is 3-9 times.
